Test results as given in ChEMBL document CHEMBL5653631, “A Potent and Selective ULK1 Inhibitor Suppresses Autophagy and Sensitizes Cancer Cells to Nutrient Stress” (iScience, 2018).

Columns and labels:
[1] = biological target: Non-receptor tyrosine-protein kinase TYK2 (Homo sapiens) (UniProt P29597); assay: Inhibition of human recombinant TYK2 at 40 nM related to control ULK1
[2] = biological target: Mitogen-activated protein kinase kinase kinase 20 (Homo sapiens) (UniProt Q9NYL2); assay: Inhibition of human recombinant ZAK at 15 nM related to control ULK1
Mitogen-activated protein kinase kinase kinase 20 (Homo sapiens), sequence (Q9NYL2 2-800 limits assumed): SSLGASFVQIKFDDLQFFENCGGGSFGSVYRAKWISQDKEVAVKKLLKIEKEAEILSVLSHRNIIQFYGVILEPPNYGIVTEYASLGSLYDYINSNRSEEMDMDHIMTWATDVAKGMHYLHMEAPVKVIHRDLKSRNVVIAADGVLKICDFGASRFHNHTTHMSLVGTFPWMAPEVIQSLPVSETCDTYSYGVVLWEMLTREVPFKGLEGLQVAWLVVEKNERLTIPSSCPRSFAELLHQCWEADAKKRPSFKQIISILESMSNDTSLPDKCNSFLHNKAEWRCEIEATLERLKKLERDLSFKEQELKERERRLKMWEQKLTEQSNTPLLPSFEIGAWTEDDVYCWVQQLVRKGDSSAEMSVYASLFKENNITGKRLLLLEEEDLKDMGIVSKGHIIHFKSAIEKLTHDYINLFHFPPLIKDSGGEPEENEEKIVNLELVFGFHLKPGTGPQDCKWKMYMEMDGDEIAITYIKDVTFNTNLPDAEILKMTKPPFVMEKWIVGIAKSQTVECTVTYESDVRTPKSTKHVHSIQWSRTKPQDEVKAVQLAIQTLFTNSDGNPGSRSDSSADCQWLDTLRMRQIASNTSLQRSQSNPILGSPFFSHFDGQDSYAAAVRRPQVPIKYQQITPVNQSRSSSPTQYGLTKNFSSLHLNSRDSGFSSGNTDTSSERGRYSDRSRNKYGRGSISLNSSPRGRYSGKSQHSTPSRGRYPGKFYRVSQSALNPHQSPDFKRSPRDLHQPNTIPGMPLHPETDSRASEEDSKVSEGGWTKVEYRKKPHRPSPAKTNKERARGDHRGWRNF

[3] = biological target: T1, Receptor-interacting serine/threonine-protein kinase 1 (Homo sapiens) (UniProt Q13546); assay: Inhibition of human recombinant RIPK1 at 15 nM in presence of ATP by radiometric assay relative to control
T1 sequence (whole entry): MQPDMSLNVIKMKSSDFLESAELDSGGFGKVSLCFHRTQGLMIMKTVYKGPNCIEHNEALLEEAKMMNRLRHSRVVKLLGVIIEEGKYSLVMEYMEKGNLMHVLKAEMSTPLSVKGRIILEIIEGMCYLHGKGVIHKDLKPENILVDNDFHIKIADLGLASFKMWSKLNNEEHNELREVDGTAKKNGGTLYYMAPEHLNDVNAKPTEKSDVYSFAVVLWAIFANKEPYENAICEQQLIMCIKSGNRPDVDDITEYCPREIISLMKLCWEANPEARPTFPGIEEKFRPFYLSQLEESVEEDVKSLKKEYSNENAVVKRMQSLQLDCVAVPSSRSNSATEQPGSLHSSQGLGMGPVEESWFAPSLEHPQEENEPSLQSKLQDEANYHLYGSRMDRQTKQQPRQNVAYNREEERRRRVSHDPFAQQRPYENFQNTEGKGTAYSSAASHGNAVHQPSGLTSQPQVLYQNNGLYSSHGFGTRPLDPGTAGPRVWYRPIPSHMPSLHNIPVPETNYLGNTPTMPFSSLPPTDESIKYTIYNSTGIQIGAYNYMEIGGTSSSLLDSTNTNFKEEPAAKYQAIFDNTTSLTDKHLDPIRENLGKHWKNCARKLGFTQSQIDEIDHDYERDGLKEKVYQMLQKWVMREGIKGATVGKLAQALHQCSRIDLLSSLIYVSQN

[4] = biological target: T2, Mitogen-activated protein kinase kinase kinase 3 (Homo sapiens) (UniProt Q99759); assay: Inhibition of human recombinant MAP3K3 at 500 nM in presence of ATP by radiometric assay relative to control
T2 sequence (whole entry): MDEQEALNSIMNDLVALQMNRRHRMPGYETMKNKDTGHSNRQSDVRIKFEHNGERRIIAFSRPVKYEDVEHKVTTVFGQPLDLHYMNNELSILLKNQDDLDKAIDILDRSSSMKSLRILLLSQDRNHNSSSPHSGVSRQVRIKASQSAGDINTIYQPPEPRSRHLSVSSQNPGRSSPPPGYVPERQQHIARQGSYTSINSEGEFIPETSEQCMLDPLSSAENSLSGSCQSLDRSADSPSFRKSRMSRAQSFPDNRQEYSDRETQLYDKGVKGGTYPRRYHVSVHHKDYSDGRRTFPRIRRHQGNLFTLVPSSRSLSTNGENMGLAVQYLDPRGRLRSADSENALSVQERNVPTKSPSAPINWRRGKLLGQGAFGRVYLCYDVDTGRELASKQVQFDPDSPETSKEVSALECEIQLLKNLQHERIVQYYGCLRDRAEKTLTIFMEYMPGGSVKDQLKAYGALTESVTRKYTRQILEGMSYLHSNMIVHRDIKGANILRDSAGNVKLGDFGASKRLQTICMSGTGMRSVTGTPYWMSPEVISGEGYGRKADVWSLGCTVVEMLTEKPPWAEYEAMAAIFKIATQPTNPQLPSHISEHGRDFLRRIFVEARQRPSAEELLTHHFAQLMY

Non-receptor tyrosine-protein kinase TYK2 (Homo sapiens), sequence (P29597 whole entry): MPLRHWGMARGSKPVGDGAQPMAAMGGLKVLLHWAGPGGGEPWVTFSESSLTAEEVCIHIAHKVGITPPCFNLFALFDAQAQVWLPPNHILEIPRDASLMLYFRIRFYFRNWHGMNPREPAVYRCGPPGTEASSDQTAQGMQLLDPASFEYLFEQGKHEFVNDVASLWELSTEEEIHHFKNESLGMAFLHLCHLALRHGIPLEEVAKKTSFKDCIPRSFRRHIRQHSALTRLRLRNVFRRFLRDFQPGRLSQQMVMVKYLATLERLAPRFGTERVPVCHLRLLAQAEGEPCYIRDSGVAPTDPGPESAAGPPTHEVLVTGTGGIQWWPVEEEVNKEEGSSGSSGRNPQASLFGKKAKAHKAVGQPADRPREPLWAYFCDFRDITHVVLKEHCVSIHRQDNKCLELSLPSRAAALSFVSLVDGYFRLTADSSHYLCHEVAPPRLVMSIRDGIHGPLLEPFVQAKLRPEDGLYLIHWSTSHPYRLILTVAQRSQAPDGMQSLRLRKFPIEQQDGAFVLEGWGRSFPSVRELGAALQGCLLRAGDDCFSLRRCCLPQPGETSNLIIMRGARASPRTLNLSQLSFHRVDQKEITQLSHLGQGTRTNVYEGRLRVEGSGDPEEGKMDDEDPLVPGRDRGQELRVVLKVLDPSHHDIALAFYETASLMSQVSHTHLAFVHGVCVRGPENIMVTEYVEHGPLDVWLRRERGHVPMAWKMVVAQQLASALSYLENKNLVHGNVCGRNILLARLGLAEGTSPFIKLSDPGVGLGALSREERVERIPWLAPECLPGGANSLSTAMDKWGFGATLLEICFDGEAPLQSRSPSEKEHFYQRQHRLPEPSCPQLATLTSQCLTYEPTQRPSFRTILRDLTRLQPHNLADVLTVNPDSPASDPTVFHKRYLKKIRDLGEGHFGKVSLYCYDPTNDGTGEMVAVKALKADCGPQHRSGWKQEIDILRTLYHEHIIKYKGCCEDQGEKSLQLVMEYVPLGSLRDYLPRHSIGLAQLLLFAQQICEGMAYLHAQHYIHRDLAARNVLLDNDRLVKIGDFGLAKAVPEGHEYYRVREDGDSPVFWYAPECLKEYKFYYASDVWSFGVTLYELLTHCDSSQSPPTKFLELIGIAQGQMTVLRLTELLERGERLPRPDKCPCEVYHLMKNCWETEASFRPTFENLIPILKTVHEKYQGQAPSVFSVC

Structure (SMILES): O=C(N[C@@H](C1CC1)C(F)(F)F)c1cc(-c2cnn3cc(-c4ccc(F)cc4)cnc23)cs1
- fold change (FC) [1]: 0.01

Structure (SMILES): CC(C)[C@H](NC(=O)c1cc(-c2cnn3cc(-c4ccc(OCCN5CCCCC5)cc4)cnc23)cs1)C(F)(F)F
- fold change (FC) [2]: 0.3
- inhibition [3]: 1%

Structure (SMILES): CNC(=O)c1ccccc1Oc1nc(Nc2cc(OC)c(OC)c(OC)c2)ncc1Br
- inhibition [4]: 0%
